Structures can show the parent of a compound that is named as a salt.
Experiments:
[1] = target: T1, tissue plasminogen activator (tPA) (Homo sapiens, UniProt P00750); test: chromogenic substrate protease assay with recombinant tPA (positive control inhibitor); assay type: biochemical
T1 construct: gene PLAT; Human recombinant tPA (Activase)

[2] = target: T1, tissue plasminogen activator (tPA); test: chromogenic substrate protease assay with recombinant tPA; […] inhibition at […]; IC50 extrapolated ([…] min […], […] min […]); assay type: biochemical

T1 sequence (P00750 36-562): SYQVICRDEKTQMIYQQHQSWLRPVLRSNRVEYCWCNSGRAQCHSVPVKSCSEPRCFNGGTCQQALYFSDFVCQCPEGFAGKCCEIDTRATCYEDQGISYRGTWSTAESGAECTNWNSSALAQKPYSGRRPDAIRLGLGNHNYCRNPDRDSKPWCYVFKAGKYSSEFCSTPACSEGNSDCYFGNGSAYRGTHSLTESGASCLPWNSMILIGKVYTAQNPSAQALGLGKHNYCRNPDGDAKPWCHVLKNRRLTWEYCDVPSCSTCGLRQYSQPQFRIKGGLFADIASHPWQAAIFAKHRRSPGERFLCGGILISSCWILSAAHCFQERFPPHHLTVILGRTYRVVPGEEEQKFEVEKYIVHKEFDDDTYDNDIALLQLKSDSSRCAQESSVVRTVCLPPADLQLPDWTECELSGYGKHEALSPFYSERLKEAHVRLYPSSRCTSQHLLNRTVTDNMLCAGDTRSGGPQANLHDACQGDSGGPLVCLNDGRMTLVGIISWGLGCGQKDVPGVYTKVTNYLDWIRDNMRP

inhibition at 5 µM [1] [%] | SMILES | IC50 [2] [µM]
83.4 | N=C(N)c1ccc(C=C2CCCCC(=Cc3ccc(C(=N)N)cc3)C2=O)cc1 [tPA-STOP, 2,7-Bis-(4-amidinobenzylidene)-cycloheptan-1-one dihydrochloride] | 
 | COc1cc(/C=C/c2cc(/C=C/c3ccc(O)c(OC)c3)n(-c3ccccc3)n2)ccc1O [CNB-001] | ~65.2

Reference: PMC4215513, “Effect of the Pleiotropic Drug CNB-001 on Tissue Plasminogen Activator (tPA) Protease Activity in vitro: Support for Combination Therapy to Treat Acute Ischemic Stroke” (Journal of neurology & neurophysiology, 2014)
